US10499645B2, “Nematicidal aqueous suspension concentrate compositions” (Monsanto Technology LLC, priority 2012, dated 2019)

Tests used:
Type in all cases: physicochemical
[1] = Non-competitive slurry experiments (XRD); details: ambient temperature
Method: In addition to the solvent recrystallization experiments, non-competitive slurry experiments were performed to search for new solid-state forms of 3-phenyl-5-(thiophen-2-yl)-1,2,4-oxadiazole. These experiments rely on solubility differences of different polymorphic forms (if the compound exists in different polymorphic forms).
Essentially, when a solid is mixed with solvent to create slurry, a saturated solution eventually results. The solution is saturated with respect to the polymorphic form dissolved. […] In addition, noncompetitive slurry experiments are often useful in identifying solvents that form solvates with the compound.
The slurry experiments were performed by exposing excess supplied material to solvents and agitating the resulting suspensions for several days at ambient temperature. The solids were filtered using a WHATMAN Grade 1 apparatus (11 μm pore size) and analyzed by XRD to determine the resulting form(s). To avoid possible desolvation or physical change after isolation, the samples were not dried before X-ray analysis.

[2] = Mechanical pressure analysis (CARVER press, XRD); details: approximately 15,000 psi for approximately 20 seconds
Method: Batches of 3-phenyl-5-(thiophen-2-yl)-1,2,4-oxadiazole polymorphic Forms I and II were placed in a CARVER press and compressed at approximately 15,000 psi for approximately 20 seconds in two separate experiments. XRD analysis was performed on the samples. The resulting XRD pattern matched the starting material in both experiments, as shown in FIGS. 5A and 5B for Forms I and II, respectively. […] The Form II used in this experiment was obtained by recrystallization from the melt of Form I, as described in Example 14, above.

[3] = Grinding analysis (ball mill, XRD); details: ball mill 2 minutes at 4800 oscillations per minute
Method: Batches of 3-phenyl-5-(thiophen-2-yl)-1,2,4-oxadiazole polymorphic Forms I and II were ground using a CRESCENT WIG-L-BUG ball mill for 2 minutes at 4800 oscillations per minute (3.2 m/s) in two separate experiments. […] The Form II used in this experiment was obtained by recrystallization from the melt of Form I, as described in Example 14, above, […]

[4] = Storage stability of polymorphs (XRD)

| Compound | form resulting from slurry experiments (summary) ([1]; approximately 12 days of slurring) | change of polymorphic form under pressure [2] | polymorphic transformation on grinding [3] | storage stability / hydrate formation (XRD) ([4]; 75 and 84% RH, ambient temperature, 4 weeks, open Petri dishes) | form resulting from slurry experiments (summary) ([1]; approximately 7 days of slurring) | storage stability (XRD) ([4]; scintillation vial in a hood, ambient conditions, approximately 6 days) |
| --- | --- | --- | --- | --- | --- | --- |
| c1ccc(-c2noc(-c3cccs3)n2)cc1 [Form I, 3-phenyl-5-(thiophen-2-yl)-1,2,4-oxadiazole] | Form I | did not reveal any changes in the polymorphic form | no transformation | does not form a hydrate and appears to be thermodynamically stable over time at ambient conditions |  |  |
| c1ccc(-c2noc(-c3cccs3)n2)cc1 [Form II, 3-phenyl-5-(thiophen-2-yl)-1,2,4-oxadiazole] |  | did not reveal any changes in the polymorphic form | transformed to Form I |  | Form I | showed signs of transformation to Form I |
